Test results reported in patent publication US20070254312A1, “Protein Kinase Inhibitors and Methods for Identiying Same” (priority 2004, published 2007).
Starred links: 1 amine or outer side, 2 acyl side, 3 side chain; linkers in the order of their positions; H or OH if unused. Non-standard residues stand in square brackets, D forms with d. Residues, ends and D or L forms follow the SMILES beside them. *: point of attachment. Benzoyl(4-(pyrrol-1-yl)) = O=C(c1ccc(-n2cccc2)cc1)*; Phenylacetyl(3,4-Cl2) = O=C(Cc1ccc(Cl)c(Cl)c1)*; Cysteamide = C(CS[*:3])N[*:1]; Dap = NC[C@H](N)C(=O)O

Molecular target: T1, PKCτ (Homo sapiens, UniProt P41743)
T1 construct: purchased Pan Vera
T1 sequence (P41743 1-596): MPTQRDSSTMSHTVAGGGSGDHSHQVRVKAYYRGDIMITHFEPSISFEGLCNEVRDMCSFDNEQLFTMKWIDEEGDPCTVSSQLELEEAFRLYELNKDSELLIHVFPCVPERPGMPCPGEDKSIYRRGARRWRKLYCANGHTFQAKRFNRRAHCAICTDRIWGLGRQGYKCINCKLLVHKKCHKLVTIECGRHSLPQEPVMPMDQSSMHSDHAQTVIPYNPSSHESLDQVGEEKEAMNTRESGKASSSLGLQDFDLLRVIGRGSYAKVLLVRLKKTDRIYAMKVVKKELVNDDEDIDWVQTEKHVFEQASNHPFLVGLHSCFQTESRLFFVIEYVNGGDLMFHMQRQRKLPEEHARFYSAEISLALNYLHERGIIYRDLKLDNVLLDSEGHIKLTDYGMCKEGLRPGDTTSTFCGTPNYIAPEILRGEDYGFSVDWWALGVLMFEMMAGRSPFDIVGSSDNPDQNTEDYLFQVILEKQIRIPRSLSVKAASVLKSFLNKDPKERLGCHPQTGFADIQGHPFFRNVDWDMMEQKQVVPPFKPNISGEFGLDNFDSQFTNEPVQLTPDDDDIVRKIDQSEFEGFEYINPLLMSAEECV
Assay: PKC isoform assay, Example 1
Assay type: biochemical
Description: Protein Kinase C Assay (general). The peptides Ac-Ser-Phe-Arg-Arg-Arg-NH2 (for PKC α, β and γ) and acetyl-[…]NH2 (for PKC ε and ζ) were used as substrates.

Q: For `CC(C)C[C@H](NC(=O)[C@H](C)NC(=O)CNC(=O)[C@H](CCCNC(=N)N)NC(=O)[C@H](CCCNC(=N)N)NC(=O)[C@H](C)NC(=O)Cc1ccc(Cl)c(Cl)c1)C(=O)N[C@@H](CCCNC(=N)N)C(=O)N[C@@H](CNC(=O)c1ccc(-n2cccc2)cc1)C(=O)N[C@@H](C)C(=O)NCCS` [Compound 6] ({Phenylacetyl(3,4-Cl2)}-ARRGALR[Dap](Benzoyl(4-(pyrrol-1-yl)))A-Cysteamide), which “selectivity for PKCα versus PKCτ” value is on record?
A: The value was 940 fold.
